Results taken from patent US20230203059A1, “MACROCYCLIC JAK INHIBITOR AND USES THEREOF” (Biopolar Hongye (Guangdong) Pharmaceutical Co. Ltd., priority 2020, published 2023).

Key:
Type in all cases: biochemical
TYK2 = TYK2 (Homo sapiens, UniProt P29597); assay: JAK kinase activity, homogeneous time-resolved fluorescence (TYK2 reaction system); details: ATP 2 μM, TYK2 protein 0.2 ng/μL; read-out: TYK 2 activity
In short: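 Activity read as the 665 nm/615 nm ratio after adding EDTA-containing detection mix with anti-phospho-substrate antibody and XL-615. Beforehand, 0.2 ng/μL TYK2, 2 μM ATP, substrate and compound reacted 1 h in pH 7.0 Hepes buffer with MgCl2 and DTT. IC50 fitted with Hill-slope equation.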

JAK3 = biological target: T1, JAK3 (Homo sapiens, UniProt P52333); assay: JAK kinase activity, homogeneous time-resolved fluorescence (JAK3 reaction system); details: ATP 2 μM, JAK3 protein 0.04 ng/μL; read-out: JAK 3 activity
T1 sequence (P52333 1-1124): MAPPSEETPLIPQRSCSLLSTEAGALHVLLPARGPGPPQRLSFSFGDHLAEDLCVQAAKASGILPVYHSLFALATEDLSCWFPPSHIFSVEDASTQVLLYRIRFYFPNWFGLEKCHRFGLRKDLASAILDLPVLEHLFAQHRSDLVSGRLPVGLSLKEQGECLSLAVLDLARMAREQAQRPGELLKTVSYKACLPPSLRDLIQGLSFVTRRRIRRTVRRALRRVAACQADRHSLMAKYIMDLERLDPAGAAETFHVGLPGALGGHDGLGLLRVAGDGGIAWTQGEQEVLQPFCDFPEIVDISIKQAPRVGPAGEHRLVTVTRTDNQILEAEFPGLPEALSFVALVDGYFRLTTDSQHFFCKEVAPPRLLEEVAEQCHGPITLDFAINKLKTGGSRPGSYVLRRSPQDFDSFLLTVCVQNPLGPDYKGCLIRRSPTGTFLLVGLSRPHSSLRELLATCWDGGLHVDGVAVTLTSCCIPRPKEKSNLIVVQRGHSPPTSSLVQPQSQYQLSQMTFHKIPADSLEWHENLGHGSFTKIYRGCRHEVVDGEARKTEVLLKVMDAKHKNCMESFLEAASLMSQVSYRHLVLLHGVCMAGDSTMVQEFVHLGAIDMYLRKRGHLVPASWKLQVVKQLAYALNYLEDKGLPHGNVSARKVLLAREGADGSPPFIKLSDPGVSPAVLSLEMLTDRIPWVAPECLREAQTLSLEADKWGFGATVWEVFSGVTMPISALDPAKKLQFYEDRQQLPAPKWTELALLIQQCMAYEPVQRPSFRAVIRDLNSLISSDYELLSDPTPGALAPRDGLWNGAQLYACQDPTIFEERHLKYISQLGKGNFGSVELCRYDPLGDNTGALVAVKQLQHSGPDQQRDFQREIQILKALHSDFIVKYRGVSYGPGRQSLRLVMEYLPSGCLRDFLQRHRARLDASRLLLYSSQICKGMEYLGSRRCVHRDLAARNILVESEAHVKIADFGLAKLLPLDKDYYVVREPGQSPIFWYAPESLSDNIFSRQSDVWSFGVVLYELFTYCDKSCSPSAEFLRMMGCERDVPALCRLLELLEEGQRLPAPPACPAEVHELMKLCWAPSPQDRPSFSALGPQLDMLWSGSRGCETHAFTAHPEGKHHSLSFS

JAK1 = JAK1 (Homo sapiens, UniProt P23458); assay: JAK kinase activity, homogeneous time-resolved fluorescence (JAK1 reaction system); details: ATP 2 μM, JAK1 protein 0.2 ng/μL; read-out: JAK 1 activity
Chain of JAK1 (P23458 whole entry): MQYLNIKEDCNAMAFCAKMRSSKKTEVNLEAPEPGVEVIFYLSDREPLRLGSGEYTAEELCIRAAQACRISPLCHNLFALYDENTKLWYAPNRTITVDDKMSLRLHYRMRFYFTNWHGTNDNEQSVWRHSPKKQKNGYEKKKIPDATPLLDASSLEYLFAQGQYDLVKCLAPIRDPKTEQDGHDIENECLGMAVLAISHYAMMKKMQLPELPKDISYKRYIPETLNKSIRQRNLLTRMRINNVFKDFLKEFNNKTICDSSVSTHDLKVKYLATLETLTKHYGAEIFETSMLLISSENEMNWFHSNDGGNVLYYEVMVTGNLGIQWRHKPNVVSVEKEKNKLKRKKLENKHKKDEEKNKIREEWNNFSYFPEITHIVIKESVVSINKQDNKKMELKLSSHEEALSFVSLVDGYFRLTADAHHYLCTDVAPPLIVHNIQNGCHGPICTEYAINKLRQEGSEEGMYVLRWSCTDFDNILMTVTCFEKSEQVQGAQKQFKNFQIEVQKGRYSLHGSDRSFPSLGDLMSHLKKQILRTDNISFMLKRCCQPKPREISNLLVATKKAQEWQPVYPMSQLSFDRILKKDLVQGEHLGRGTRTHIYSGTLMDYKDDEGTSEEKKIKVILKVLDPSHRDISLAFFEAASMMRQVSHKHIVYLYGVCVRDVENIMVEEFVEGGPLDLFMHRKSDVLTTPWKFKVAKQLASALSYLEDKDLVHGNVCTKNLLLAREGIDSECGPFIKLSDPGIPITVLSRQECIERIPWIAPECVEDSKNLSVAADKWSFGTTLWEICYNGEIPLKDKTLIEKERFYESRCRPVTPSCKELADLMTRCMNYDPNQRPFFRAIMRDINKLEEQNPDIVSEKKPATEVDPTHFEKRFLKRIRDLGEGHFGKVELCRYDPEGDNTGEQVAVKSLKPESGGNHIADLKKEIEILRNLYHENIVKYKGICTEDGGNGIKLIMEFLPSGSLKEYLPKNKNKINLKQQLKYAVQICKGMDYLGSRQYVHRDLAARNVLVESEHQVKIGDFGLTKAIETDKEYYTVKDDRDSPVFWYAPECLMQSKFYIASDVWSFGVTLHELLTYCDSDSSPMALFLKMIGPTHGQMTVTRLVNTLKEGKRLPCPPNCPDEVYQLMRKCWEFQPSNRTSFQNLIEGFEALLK
In short: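 HTRF assay: JAK1 (0.2 ng/μL) with 2 μM ATP and substrate in 50 mM Hepes pH 7.0, 5 mM MgCl2, 1 mM DTT, 1 h. Phospho-substrate antibody/XL-615 detection with EDTA; 665/615 nm ratio, excitation 320 nm. IC50 from Hill-type fit against no-enzyme and no-compound controls.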

JAK2 = JAK2 (Homo sapiens, UniProt O60674); assay: JAK kinase activity, homogeneous time-resolved fluorescence (JAK2 reaction system); details: ATP 2 μM, JAK2 protein 0.01 ng/μL
Chain of JAK2 (O60674 whole entry): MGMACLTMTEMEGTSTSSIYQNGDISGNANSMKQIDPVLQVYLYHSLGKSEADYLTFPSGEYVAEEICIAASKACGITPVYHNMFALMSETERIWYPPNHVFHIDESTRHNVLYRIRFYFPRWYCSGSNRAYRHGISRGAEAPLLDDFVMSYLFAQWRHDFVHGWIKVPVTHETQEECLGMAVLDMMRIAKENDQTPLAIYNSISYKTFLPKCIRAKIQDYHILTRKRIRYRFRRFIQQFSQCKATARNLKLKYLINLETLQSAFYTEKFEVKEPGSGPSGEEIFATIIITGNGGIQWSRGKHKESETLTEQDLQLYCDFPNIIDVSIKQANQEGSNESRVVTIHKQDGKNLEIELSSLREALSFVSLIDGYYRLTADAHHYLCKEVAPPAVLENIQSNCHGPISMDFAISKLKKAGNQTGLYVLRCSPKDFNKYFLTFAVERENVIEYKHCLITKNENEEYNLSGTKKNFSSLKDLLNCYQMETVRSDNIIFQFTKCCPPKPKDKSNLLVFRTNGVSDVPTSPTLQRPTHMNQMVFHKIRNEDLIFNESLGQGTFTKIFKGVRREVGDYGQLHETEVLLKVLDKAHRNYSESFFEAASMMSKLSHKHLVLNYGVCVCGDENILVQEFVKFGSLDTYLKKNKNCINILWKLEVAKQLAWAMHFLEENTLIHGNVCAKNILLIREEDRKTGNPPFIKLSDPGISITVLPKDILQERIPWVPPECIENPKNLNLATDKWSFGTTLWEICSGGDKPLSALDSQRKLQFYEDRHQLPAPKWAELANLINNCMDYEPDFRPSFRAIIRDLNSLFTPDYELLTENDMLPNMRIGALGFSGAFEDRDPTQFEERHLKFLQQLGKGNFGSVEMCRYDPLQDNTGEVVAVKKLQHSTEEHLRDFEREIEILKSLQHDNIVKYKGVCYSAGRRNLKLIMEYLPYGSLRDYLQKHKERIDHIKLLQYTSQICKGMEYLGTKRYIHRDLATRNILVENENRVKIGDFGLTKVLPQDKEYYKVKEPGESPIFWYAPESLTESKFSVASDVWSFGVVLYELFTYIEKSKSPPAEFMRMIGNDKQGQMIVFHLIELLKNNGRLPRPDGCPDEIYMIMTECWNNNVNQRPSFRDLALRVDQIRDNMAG
In short: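 IC50 derived by Hill-equation fit of the 665/615 nm time-resolved fluorescence ratio after EDTA-containing detection mix with anti-phosphosubstrate antibody. Preceding 1 h reaction contained 2 μM ATP, 0.01 ng/μL JAK2, substrate, 50 mM Hepes pH 7.0, 5 mM MgCl2, 1 mM DTT.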

Chain of TYK2 (P29597 whole entry): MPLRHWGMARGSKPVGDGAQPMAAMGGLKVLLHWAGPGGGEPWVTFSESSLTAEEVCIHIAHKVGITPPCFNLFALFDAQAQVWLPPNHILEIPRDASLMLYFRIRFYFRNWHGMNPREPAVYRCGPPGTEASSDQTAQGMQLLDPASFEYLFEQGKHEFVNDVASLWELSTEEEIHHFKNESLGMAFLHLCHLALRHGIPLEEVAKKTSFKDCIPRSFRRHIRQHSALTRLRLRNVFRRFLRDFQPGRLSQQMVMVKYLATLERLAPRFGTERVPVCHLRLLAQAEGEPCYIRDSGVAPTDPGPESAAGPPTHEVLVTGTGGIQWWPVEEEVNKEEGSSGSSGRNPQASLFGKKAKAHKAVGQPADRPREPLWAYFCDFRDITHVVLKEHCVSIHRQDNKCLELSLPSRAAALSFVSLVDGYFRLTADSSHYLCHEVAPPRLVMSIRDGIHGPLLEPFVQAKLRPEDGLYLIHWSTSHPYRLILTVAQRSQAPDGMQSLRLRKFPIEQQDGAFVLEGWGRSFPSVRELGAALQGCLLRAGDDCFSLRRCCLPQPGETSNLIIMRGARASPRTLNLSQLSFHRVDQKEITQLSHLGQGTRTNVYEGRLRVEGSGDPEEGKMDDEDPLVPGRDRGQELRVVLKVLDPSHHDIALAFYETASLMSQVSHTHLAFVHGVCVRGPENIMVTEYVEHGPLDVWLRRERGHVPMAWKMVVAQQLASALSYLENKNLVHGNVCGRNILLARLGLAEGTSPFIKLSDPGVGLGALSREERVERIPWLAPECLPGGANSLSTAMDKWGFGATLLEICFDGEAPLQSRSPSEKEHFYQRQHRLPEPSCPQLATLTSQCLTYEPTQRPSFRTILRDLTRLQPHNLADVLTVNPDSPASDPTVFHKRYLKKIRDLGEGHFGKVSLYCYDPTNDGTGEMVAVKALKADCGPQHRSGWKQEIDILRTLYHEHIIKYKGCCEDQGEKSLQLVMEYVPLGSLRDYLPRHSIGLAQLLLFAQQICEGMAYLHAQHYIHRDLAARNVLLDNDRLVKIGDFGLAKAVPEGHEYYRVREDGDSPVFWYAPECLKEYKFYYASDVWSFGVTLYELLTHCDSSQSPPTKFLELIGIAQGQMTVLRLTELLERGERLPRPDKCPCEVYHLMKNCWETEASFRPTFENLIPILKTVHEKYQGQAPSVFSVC

| Compound | IC50 (TYK2) | IC50 (JAK3) | IC50 (JAK1) | IC50 (JAK2) |
| --- | --- | --- | --- | --- |
| O=C1NCCCCOCc2cc(ccc2OCc2ccccc2)Nc2nccc(n2)-c2ccc1cc2[N+](=O)[O-] [Example 117, 4^4-(benzyloxy)-1^2-nitro-6-oxa-3,1,1-diaza-2(4,2)-pyrimidina-1(1,4),4(1,3)-dibenzenacyclododecaphan-12-one] | > 10 µM | 0.101 to 1 µM | 1 to 10 µM | > 10 µM |
| Nc1cc2ccc1-c1ccnc(n1)Nc1ccc(OCc3ccccc3)c(c1)COCCCCNC2=O [Example 118, 1^2-amino-4^4-(benzyloxy)-6-oxa-3,11-diaza-2(4,2)-pyrimidina-1(1,4),4(1,3)-dibenzenacyclododecaphan-12-one] | > 10 µM | 0.011 to 0.1 µM | 1 to 10 µM | 1 to 10 µM |
| O=C1NCCCCOCc2cc(ccc2OCC2CCC(F)(F)C2)Nc2nccc(n2)-c2ccc1cc2[N+](=O)[O-] (stereo not shown) [Example 120, 4^4-((3,3-difluorocyclopentyl)meth-oxy)-1^2-nitro-6-oxa-3,11-diaza-2(4,2)-pyrimidina-1(1,4),4(1,3)-di-benzenacyclododecaphan-12-one] | > 10 µM | 0.101 to 1 µM | 1 to 10 µM | 1 to 10 µM |
| O=C1NCCCCOCc2cc(ccc2OCC2Cc3ccccc3C2)Nc2nccc(n2)-c2ccc1cc2[N+](=O)[O-] [Example 122, 4^4-((2,3-dihydro-1H-inden-2-yl)methoxy)-1^2-nitro-6-oxa-3,11-diaza-2(4,2)-pyrimidina-1(1,4),4(1,3)-dibenzenacyclododecaphan-12-one] | > 10 µM | 0.101 to 1 µM | > 10 µM | > 10 µM |
| Nc1cc2ccc1-c1ccnc(n1)Nc1ccc(OCC3Cc4ccccc4C3)c(c1)COCCCCNC2=O [Example 123, 1^2-amino-4^4-((2,3-dihydro-1H-inden-2-yl)methoxy)-6-oxa-3,11-diaza-2(4,2)-pyrimidina-1(1,4),4(1,3)-dibenzenacyclododecaphan-12-one] | 1 to 10 µM | 0.011 to 0.1 µM | 1 to 10 µM | 1 to 10 µM |
| O=C1NCCCCOCc2cc(ccc2OCC2CC(F)(F)C2)Nc2nccc(n2)-c2ccc1cc2[N+](=O)[O-] [Example 126, 4^4-((3,3-Difluorocyclobutyl)methoxy)-1^2-nitro-6-oxa-3,11-diaza-2(4,2)-pyrimidina-1(1,4),4(1,3)-di-benzenacyclododecaphan-12-one] | > 10 µM | 0.101 to 1 µM | > 10 µM | 1 to 10 µM |

Second part, the compound after the results:

| IC50 (TYK2) | IC50 (JAK3) | IC50 (JAK1) | IC50 (JAK2) | Compound |
| --- | --- | --- | --- | --- |
| > 10 µM | 0.011 to 0.1 µM | 1 to 10 µM | 1 to 10 µM | Nc1cc2ccc1-c1ccnc(n1)Nc1ccc(Oc3ccccc3F)c(c1)COCCCCNC2=O [Example 119, 1^1-amino-4^4-(2-fluorophenoxy)-6-oxa-3,11-diaza-2(4,2)-pyrimidina-1(1,4),4(1,3)-dibenzenacyclo-dodecaphan-12-one] |
| 1 to 10 µM | < 0.01 µM | 1 to 10 µM | 0.101 to 1 µM | Nc1cc2ccc1-c1ccnc(n1)Nc1ccc(OCC3CCC(F)(F)C3)c(c1)COCCCCNC2=O (stereo not shown) [Example 121, 1^2-amino-4^4-((3,3-difluorocyclo-pentyl)methoxy)-6-oxa-3,11-diaza-2(4,2)-pyrimidina-1(1,4),4(1,3)-di-benzenacyclododecaphan-12-one] |
| > 10 µM | 0.101 to 1 µM | 1 to 10 µM | 1 to 10 µM | O=C1NCCCCOCc2cc(ccc2OCC2CCOC2)Nc2nccc(n2)-c2ccc1cc2[N+](=O)[O-] (stereo not shown) [Example 124, 1^2-nitro-4^4-((tetrahydrofuran-3-yl)methoxy)-6-oxa-3,11-diaza-2(4,2)-pyrimidina-1(1,4),4(1,3)-dibenzena-cyclododecaphan-12-one] |
| 1 to 10 µM | < 0.01 µM | 0.101 to 1 µM | 0.101 to 1 µM | Nc1cc2ccc1-c1ccnc(n1)Nc1ccc(OCC3CCOC3)c(c1)COCCCCNC2=O (stereo not shown) [Example 125, 1^2-amino-4^4-((tetrahydrofuran-3-yl)methoxy)-6-oxa-3,11-diaza-2(4,2)-pyrimidina-1(1,4),4(1,3)-dibenz-enacyclododecaphan-12-one] |
